{"source": "patent EP4571306A1", "about": "“STABILIZING OXYGEN IN A COMPOSITION” (priority 2023, dated 2025)", "method": "To test for sensor stability and performance, a cartridge use life test was completed after one month of cartridge shelf-life and then repeated after eight months of cartridge shelf-life.\nAdditionally, reagent performance on the GEM® Premier™ 5000 system was evaluated based on drift of parameters for assays performed on the GEM® Premier™ 5000 system. Drift for each assay parameter constitutes a deviation of measured results for each assay parameter from its factory assigned target. For example, ρO2 was measured several times during cartridge use at a defined frequency on the GEM® Premier™ 5000, and the drift was calculated for each measurement as the difference between measured […] for a composition and the ρO2 assigned to the composition at manufacture.\nIn this experiment, the control containers were confirmed to contain limited or no metal contamination (e.g., in parts-per-billion, cobalt 0.10, chromium 2.24, copper 0.64, iron 3.23, and manganese 0.63). The limits columns represents the maximum change that can occur during composition shelf-life according to the GEM® Premier™ 5000 design specifications."}
{"smiles": "C[C@H]1COc2c(N3CCN(C)CC3)c(F)cc3c(=O)c(C(=O)O)cn1c23", "note": "[levofloxacin]", "values": [{"measurement": "effect on sensor performance and the performance and stability of the compositions", "value": "does not negatively affect sensor performance"}]}
